Values quoted from earlier work as cited in EP0243248A1, “Compositions for the treatment of baldness and alopecia” (LABORATOIRES PHARMACEUTIQUES ROCHE-POSAY, priority 1986, dated 1987).

Settings: for solubilité dans l'alcool: alcohol, in words; for solubilité dans les solutions alcalines / en milieu alcalin: alkaline solutions / alkaline medium; for solubilité dans l'eau: water

| Structure (SMILES) | solubilité dans l'alcool | solubilité dans les solutions alcalines / en milieu alcalin | solubilité dans l'eau | solubilité dans le chloroforme (chloroform) | solubilité dans l'ether (ether) |
| --- | --- | --- | --- | --- | --- |
| CC1=NS(=O)(=O)c2cc(Cl)ccc2N1 [diazoxyde, chloro-7 méthyl-3 benzothiadiazine 1, 2,4 dioxyde-1,1] | solubles | solubles | insolubles |  |  |
| O=C1NC(=O)C(c2ccccc2)(c2ccccc2)N1 [Phenytoïne, diphényl-5,5 imidazolidinedione-2,4] |  |  | pratiquement insoluble |  |  |
| O=C1NC(=O)C(c2ccccc2)(c2ccccc2)N1 [diphénylhydantoï-nate de sodium] | un peu soluble | soluble | un peu soluble | insoluble | insoluble |
